Measurements taken from patent US20060205809A1, “Pharmaceutical preparation containing palladium complex compounds and the uses thereof for treating cancer and autoimmune disease” (priority 2002, published 2006).
Read-outs that look alike come from different tables or passages of the source.

What was measured:
[1] = system: CALU-6 (lung cancer); assay: Cytotoxicity assay, 2 h drug exposure at pH 6.8 or 7.4, crystal violet staining; format: cell-based, human; conditions: then 72 h
Procedure: (§1) The Pd-complexes were dissolved in acetone (1 mg/ml stock solution). Human cancer cell lines SK-MEL 25 (melanoma) and CALU-6 (lung cancer) were used for the determination of the cytotoxic activity of Pd-complexes. For comparison, the well known anti-tumor drugs cisplatin and corresponding platinum complexes were included. Cells were seeded at a density of 2×10^6 cells/96 well plate. After 24 h, tissue culture medium was removed and fresh medium supplemented with 10% fetal calf serum and 100 units/ml penicillin/streptomycin containing either 2.2 g/l (pH 7.4) or 0.85 g/l (pH 6.8) NaHCO3 was added. After 1 hour of equilibration in an atmosphere containing 5% CO2, drugs were added at various concentrations (50, 25, 12.5, 6.25, 3.1, 1.6, 0.8 μg/ml) in quadruplicate. Untreated cultures served as controls. Two hours later, the culture medium was replaced with 0.1 ml of fresh tissue culture medium (pH 7.4, 10% fetal calf serum). Culture plates were then incubated for 48 h (SK-MEL 25) or 72 h (Calu-6) at 37° C. Then, cells were fixed with 3% formaldehyde and stained with 1% crystalviolet. The number of viable cells is proportional to the amount of bound cristalviolet. Therefore, the relative cell number could be determined at an Antos 2001 ELISA reader (550 nm). Dose response curves were established from the OD data and the concentration at which the cell number was reduced to 50% of the control (IC50) was determined.

[2] = system: SK-MEL 25 (melanoma); assay: as above; format: cell-based, human; conditions: then 48 h
Procedure: as §1

[3] = CALU-6, pH 6.8, 2 h drug exposure, read-out: IC50-values, CALU-6, pH 6.8
[4] = CALU-6, pH 7.4, 2 h drug exposure, read-out: IC50-values, CALU-6, pH 7.4
[5] = SK-MEL 25, pH 6.8, 2 h drug exposure, read-out: IC50-values, SK-MEL 25, pH 6.8
[6] = SK-MEL 25, pH 7.4, 2 h drug exposure, read-out: IC50-values, SK-MEL 25, pH 7.4

**Q.** For N.N.[Cl][Pt][Cl] [Cisplatin, reference compound], which IC50 [1, 3] is on record?
**A.** The IC50 was 6.25 µM.

**Q.** What about the IC50 [1, 4] of the same compound?
**A.** The IC50 was 6.25 µM.

**Q.** And the IC50 [2, 5]?
**A.** The IC50 was 25 µM.

**Q.** And the IC50 [2, 6]?
**A.** The IC50 was 25 µM.

**Q.** What does the source list for CC(C)OC(=S)[S-].CC(C)OC(=S)[S-].[Pt+2] [Bis(O-isopropyl-dithiocarbonato)platin, reference compound]?
**A.** IC50 [1, 3]: 6 µM; IC50 [1, 4]: 10 µM; IC50 [2, 5]: 6 µM; IC50 [2, 6]: 12 µM

**Q.** Which results are given for CCCCCCOC(=S)[S-].CCCCCCOC(=S)[S-].[Pd+2] [compound 6, Bis(O-hexyl-dithiocarbonato)palladium(II)]?
**A.** IC50 [1, 3]: 3.1 µM; IC50 [1, 4]: 6.25 µM; IC50 [2, 5]: 10 µM; IC50 [2, 6]: 10 µM

**Q.** Which IC50 [1, 3] does the source give for COC(=S)[S-].COC(=S)[S-].[Pd+2] [compound 7, Bis(O-methyl-dithiocarbonato)palladium(II)] here?
**A.** Its IC50 is 1.6 µM.

**Q.** And the IC50 [1, 4]?
**A.** The IC50 was 4.5 µM.

**Q.** What about the IC50 [2, 5] of the same compound?
**A.** Its IC50 is 4.5 µM.

**Q.** And the IC50 [2, 6]?
**A.** Its IC50 is 6.2 µM.

**Q.** For CCOC(=S)[S-].CCOC(=S)[S-].[Pt+2] [Bis(O-ethyl-dithiocarbonato) platin, reference compound], which IC50 [1, 3] is on record?
**A.** Its IC50 is 12 µM.

**Q.** What about the IC50 [1, 4] of the same compound?
**A.** Its IC50 is 28 µM.

**Q.** And the IC50 [2, 5]?
**A.** Its IC50 is 21 µM.

**Q.** And the IC50 [2, 6]?
**A.** Its IC50 is 45 µM.

**Q.** For CCC(C)COC(=S)[S][Pd][S]C(=S)OCC(C)CC (stereo not shown) [compound 4, Bis(O-(2-methyl)-butyl-dithiocarbonato)palladium(II)], which IC50 [1, 3] is on record?
**A.** Its IC50 is 2 µM.

**Q.** And the IC50 [1, 4]?
**A.** The IC50 was 6 µM.

**Q.** And the IC50 [2, 5]?
**A.** Its IC50 is 6 µM.

**Q.** What about the IC50 [2, 6] of the same compound?
**A.** Its IC50 is 9 µM.

**Q.** How did the IC50 [1, 3] turn out when CC(C)OC(=S)[S][Pd][S]C(=S)OC(C)C [compound 2, Bis(O-isopropyl-dithiocarbonato)palladium(II)] was run?
**A.** Its IC50 is 0.6 µM.

**Q.** And the IC50 [1, 4]?
**A.** The IC50 was 1.6 µM.

**Q.** And the IC50 [2, 5]?
**A.** The IC50 was 0.8 µM.

**Q.** What about the IC50 [2, 6] of the same compound?
**A.** Its IC50 is 1.3 µM.

**Q.** With CCCCOC(=S)[S-].CCCCOC(=S)[S-].[Pd+2] [compound 5, Bis(O-butyl-dithiocarbonato)palladium(II)] as the compound, how does the IC50 [1, 3] read?
**A.** The IC50 was 1 µM.

**Q.** What about the IC50 [1, 4] of the same compound?
**A.** The IC50 was 2.5 µM.

**Q.** And the IC50 [2, 5]?
**A.** The IC50 was 1 µM.

**Q.** And the IC50 [2, 6]?
**A.** Its IC50 is 3.1 µM.

**Q.** With S=C([S-])OC1CCCCC1.S=C([S-])OC1CCCCC1.[Pd+2] [compound 1, Bis(O-cyclohexyl-dithiocarbonato)palladium(II)] as the compound, how does the IC50 [1, 3] read?
**A.** Its IC50 is 2 µM.

**Q.** What about the IC50 [1, 4] of the same compound?
**A.** Its IC50 is 4 µM.

**Q.** What about the IC50 [2, 5] of the same compound?
**A.** The IC50 was 6 µM.

**Q.** What about the IC50 [2, 6] of the same compound?
**A.** Its IC50 is 10 µM.

**Q.** Which results are given for CCOC(=S)[S][Pd][S]C(=S)OCC [compound 3, Bis(O-ethyl-dithiocarbonato)palladium(II)]?
**A.** IC50 [1, 3]: 2 µM; IC50 [1, 4]: 8 µM; IC50 [2, 5]: 5 µM; IC50 [2, 6]: 14 µM
